Earlier results in article PMC11215356 (Haematologica, 2024).

Assays:
FL = FL patients
CLL/SLL = CLL/SLL patients, range over previous Syk inhibitor studies
[1] = system: patients treated with fostamatinib

diarrhea as a DLT event [1] | diarrhea as one of the most common TRAE [1] | SMILES | mPFS (FL) | ORR (CLL/SLL) | mPFS (CLL/SLL)
21% | 41% | COc1cc(Nc2ncc(F)c(Nc3ccc4c(n3)N(COP(=O)(O)O)C(=O)C(C)(C)O4)n2)cc(OC)c1OC [fostamatinib] | 5.7 months | 33-61% | 5.6-13.8 months
– | – | c1cn2cc(-c3ccc4cn[nH]c4c3)nc(Nc3ccc(N4CCOCC4)cc3)c2n1 [entospletinib] | 4.6 months | 33-61% | 5.6-13.8 months
– | – | CCS(=O)(=O)N1CCN(c2ccc(Nc3ncc(C(N)=O)c(NC4CC4)n3)cc2)CC1 [cerdulatinib] | – | 33-61% | 5.6-13.8 months
